Columns and labels:
[1] = target: farnesyl-diphosphate synthase (FPPS) (Homo sapiens, UniProt P14324); settings: FPPS (25 ng), incubated for 2 hours, conditions of FIG. 4
Experimental: Time course and protein dependence of farnesyl-diphosphate synthase (FPPS)-produced product partitioning into the organic phase. FPPS was incubated at varying concentrations and times at room temperature with 5 μM geranyl pyrophosphate (GPP) and 5 μM IPP (0.0125 μCi; [1-^14C]isopentenyl pyrophosphate) in a buffer containing 25 mM HEPES (pH 7.5), 1 mM DTT, and 1 mM MgCl2 in a total volume of 40 μL. The reaction was terminated by the addition of 10 μL of 5% phosphoric acid, followed by 50 μL Microscint™-CAT. The mix was allowed to incubate two hours prior to data acquisition. […]
A typical 384-well density reaction is partitioned with the following proportion of reagents: 40 μL enzyme assay inhibitor test mix containing FPP synthetase, substrates, test compounds, and buffer components is incubated at room temperature to generate farnesyl diphosphate. […] Enzyme activity is proportional to the radioactivity in the organic phase as determined by liquid scintillation counting (LSC). This radioactivity corresponds to products of acid treatment of the enzyme reaction, farnesol and nerolidol, as determined by LSC of authentic [1,2-^14C]trans, trans farnesol. […] The theoretical signal to background of the assay is established by comparing CPMs in the PPSF using equimolar amounts and equal amounts of radioactivity of radiolabeled substrate and product. […]

[2] = target: fatty acid synthase (FAS) (Homo sapiens, UniProt P49327); test: Phase partition assay of fatty acid synthase activity; assay type: biochemical; settings: FAS (35 ng), incubated for 90 minutes, conditions of FIG. 1
fatty acid synthase (FAS), sequence (P49327 whole entry, species assumed): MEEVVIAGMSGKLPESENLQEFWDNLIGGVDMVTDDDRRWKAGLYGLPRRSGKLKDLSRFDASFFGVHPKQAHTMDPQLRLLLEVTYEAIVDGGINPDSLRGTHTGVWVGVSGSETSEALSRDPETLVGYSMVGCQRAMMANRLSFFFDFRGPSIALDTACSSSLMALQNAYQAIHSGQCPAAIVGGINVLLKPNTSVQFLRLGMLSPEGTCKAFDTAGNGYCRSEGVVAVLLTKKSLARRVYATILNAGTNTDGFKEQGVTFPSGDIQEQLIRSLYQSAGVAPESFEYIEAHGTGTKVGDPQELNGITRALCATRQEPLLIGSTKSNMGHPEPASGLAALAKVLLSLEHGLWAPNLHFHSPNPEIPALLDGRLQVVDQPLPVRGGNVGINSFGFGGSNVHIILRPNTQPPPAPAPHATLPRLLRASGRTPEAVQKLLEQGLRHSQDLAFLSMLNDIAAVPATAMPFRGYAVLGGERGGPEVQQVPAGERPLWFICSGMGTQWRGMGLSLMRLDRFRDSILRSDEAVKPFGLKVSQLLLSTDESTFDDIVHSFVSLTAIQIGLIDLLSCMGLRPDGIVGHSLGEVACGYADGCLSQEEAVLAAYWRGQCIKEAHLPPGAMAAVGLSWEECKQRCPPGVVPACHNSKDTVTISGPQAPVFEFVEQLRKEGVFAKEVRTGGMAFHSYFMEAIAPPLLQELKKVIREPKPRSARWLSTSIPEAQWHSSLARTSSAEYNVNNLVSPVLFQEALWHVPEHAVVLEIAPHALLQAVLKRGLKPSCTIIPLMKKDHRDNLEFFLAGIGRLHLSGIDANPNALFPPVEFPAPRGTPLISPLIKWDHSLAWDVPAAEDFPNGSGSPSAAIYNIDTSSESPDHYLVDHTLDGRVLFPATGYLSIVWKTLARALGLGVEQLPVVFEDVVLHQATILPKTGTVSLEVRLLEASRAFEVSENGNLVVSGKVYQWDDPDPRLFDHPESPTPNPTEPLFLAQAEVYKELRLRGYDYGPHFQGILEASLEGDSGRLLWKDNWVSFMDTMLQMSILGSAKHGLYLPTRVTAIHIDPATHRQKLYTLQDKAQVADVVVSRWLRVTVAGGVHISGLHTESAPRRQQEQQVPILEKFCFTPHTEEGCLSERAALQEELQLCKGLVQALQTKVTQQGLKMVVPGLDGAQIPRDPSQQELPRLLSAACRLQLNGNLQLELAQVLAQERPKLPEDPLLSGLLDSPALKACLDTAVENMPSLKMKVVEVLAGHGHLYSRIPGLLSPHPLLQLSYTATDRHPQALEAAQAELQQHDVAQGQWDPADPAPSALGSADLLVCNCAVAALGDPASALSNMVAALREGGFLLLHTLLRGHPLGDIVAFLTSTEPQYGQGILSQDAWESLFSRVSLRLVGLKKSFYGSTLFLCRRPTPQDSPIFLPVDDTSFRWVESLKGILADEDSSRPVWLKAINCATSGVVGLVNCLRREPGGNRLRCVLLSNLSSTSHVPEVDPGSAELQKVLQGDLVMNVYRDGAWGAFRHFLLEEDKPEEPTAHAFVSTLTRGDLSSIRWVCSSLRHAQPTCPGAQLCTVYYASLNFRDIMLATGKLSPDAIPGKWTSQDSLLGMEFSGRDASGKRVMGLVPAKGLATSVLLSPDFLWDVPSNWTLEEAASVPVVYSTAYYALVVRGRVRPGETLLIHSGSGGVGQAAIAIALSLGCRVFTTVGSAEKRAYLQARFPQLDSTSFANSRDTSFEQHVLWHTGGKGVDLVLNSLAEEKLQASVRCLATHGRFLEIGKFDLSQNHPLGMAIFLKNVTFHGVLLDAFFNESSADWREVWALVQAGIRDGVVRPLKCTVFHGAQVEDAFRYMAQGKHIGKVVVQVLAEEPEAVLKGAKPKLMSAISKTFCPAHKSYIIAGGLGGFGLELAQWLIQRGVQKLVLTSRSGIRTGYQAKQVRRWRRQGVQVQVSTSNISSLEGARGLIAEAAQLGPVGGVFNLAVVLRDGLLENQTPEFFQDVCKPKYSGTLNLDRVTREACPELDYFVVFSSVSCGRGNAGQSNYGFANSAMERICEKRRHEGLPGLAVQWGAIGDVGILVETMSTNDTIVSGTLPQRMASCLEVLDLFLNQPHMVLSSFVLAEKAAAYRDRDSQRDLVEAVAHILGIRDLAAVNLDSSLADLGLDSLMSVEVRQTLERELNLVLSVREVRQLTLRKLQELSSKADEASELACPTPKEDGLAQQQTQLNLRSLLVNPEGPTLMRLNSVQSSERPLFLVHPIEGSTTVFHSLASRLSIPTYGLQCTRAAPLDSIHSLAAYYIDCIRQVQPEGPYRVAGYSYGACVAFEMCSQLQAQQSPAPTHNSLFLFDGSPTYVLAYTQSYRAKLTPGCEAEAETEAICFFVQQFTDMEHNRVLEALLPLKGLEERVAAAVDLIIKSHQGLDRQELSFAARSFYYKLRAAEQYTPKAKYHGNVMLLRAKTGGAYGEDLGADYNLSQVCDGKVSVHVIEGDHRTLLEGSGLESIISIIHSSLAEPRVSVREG
Experimental: FAS was incubated at varying concentrations and times at room temperature with 400 μM NADPH, 100 μM acetyl-CoA, and 20 μM malonyl-CoA (0.02 μCi [malonyl-2-^14C]-CoA) in buffer containing 50 mM MOPS (pH 6.8), 5 mM DTT, 1 mM EDTA, and 0.03% BSA in a total volume of 100 μL. The reaction was terminated by the addition of 10 μL of 10 N acetic acid, followed by the addition of 150 μL Microscint™-CAT. The mix was allowed to incubate overnight prior to data acquisition.
Inhibition of FAS by cerulenin. FAS (35 ng) was incubated for 90 minutes with cerulenin under conditions described in FIG. 1.
This method of the present invention permits radiometric detection of FAS activity via a gain of signal assay using [2-^14C]malonyl CoA as the radiolabel and partitioning of the radioactive products (^14C-labeled oleic acid and palmitic acid) into the PPSF (Microscint™-E), following acidification and addition of PPSF to the reaction mixture.
A typical 96-well density reaction is partitioned in the following manner: an enzyme assay inhibitor test mix (100 μL) containing enzyme, substrates, test compounds, and buffer components is incubated at room temperature to generate the fatty acid products. […] Enzyme activity is proportional to the radioactivity in the organic phase as determined by liquid scintillation counting. […]

farnesyl-diphosphate synthase (FPPS), sequence (P14324 whole entry): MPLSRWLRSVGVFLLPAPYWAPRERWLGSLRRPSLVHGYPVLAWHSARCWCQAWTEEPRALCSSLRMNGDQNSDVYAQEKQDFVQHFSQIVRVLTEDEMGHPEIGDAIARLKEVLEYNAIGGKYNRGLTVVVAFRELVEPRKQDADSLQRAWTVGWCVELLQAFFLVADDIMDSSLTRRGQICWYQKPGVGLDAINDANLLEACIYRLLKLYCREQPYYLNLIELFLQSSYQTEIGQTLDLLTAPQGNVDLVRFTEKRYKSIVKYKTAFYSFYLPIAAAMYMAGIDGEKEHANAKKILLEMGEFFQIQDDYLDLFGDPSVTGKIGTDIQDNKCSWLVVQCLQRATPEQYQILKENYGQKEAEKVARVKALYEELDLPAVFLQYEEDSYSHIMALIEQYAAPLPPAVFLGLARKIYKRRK

Compound	Inhibition of FPPS [1]	Inhibition of FAS [2]
NCCCC(O)(P(=O)(O)O)P(=O)(O)O [alendronate]	Inhibition	
C/C=C/C/C=C/CCC(=O)[C@H]1O[C@H]1C(N)=O [cerulenin]		Inhibition
